Assay results published in article PMC8904075 (Journal of medicinal chemistry, 2021).
Several values for one entry are separate records, joined by “and”; a condition that tells them apart may be missing. Equal entries are not always repeated. Values belong to the molecule of their own block, whether it stands above or below them.

Legend:
P. berghei-infected mice = conditions: antimalarials in clinical trials; cited from earlier work
P. berghei-GFP = assay: In vivo efficacy, modified Thompson test
[1] = assay type: in vivo
P. falciparum = assay: In vitro antimalarial activity as summarised in text; assay type: cell-based
[2] = Aqueous stability / parent compound release by quantitative HPLC; assay type: physicochemical; conditions: for parent compound released: release of parent compound 4
[3] = system: P. falciparum clone W2/Indochina (chloroquine and pyrimethamine resistant); assay: In vitro antimalarial activity, 3H-hypoxanthine incorporation, W2; assay type: cell-based; conditions: Table 2; means of at least two independent experiments
[4] = system: P. falciparum TM90-C2B/Thailand (chloroquine, mefloquine, pyrimethamine, and atovaquone resistant); assay: In vitro antimalarial activity, 3H-hypoxanthine incorporation, TM90-C2B; assay type: cell-based; conditions: Table 2; means of at least two independent experiments

Molecule: C[C@H]1Cc2c([nH]c3cc(Cl)c(F)cc23)[C@@]2(N1)C(=O)Nc1ccc(Cl)cc12 [KAE609]
- single oral (PO) curative dose, single exposure radical cure (P. berghei-infected mice): 100 mg/kg

Molecule: CS(=O)(=O)c1ccc(-c2cnc(N)c(-c3ccc(C(F)(F)F)nc3)c2)cc1 [MMV390048]
- single oral (PO) curative dose, single exposure radical cure (P. berghei-infected mice): 30 mg/kg

Molecule: c1cc([C@H]2CC[C@]3(CC2)OOC2(O3)C3CC4CC(C3)CC2C4)ccc1OCCN1CCOCC1 (stereo partly shown) [OZ439]
- single oral (PO) curative dose, single exposure radical cure (P. berghei-infected mice): 20 mg/kg

Molecule: COc1cc2[nH]c(C)c(-c3ccc(Oc4ccc(OC(F)(F)F)cc4)cc3F)c(=O)c2cc1Cl [compound 2, 6-chloro-3-(2-fluoro-4-(4-(trifluoromethoxy)phenoxy)phenyl)-7-methoxy-2-methyl-4(1H)-quinolone]
- in vivo activity (P. berghei-GFP; single dose of 10 mg/kg, 0.5% aqueous HEC): completely inactive

- Tmax ([1]; plasma, po, 50 mg/kg): 2 h
- maximum plasma concentration of 4 ([1]; single oral 50 mg/kg of 4, 0.5% aqueous HEC): 365 nM
Molecule: COc1cc2[nH]c(C)c(-c3ccc(C(F)(F)F)cc3)c(=O)c2cc1Cl [compound 4, 6-chloro-7-methoxy-2-methyl-3-(4-(trifluoromethyl)phenyl)-4(1H)-quinolone]

Molecule: CCOC(=O)Oc1c(-c2ccccc2C)c(C)nc2cc(OC)c(Cl)cc12 [compound 11, 6-Chloro-7-methoxy-2-methyl-3-(o-tolyl)-4-((ethoxycarbonyl)oxy)quinoline]
- fold less potent than reference compound 3 (P. falciparum; in vitro antimalarial activity, Table 1): 10 fold

- EC50 (P. falciparum; Plasmodium falciparum): > 4 µM
Molecule: CN1CCCOC1=O [compound 13, 3-Methyl-1,3-oxazinan-2-one]

- parent compound released ([2]; in 1 h at pH 7.0): > 90%
- parent compound released ([2]; in 10 h at pH 4.0): > 25%
Molecule: CNCCOC(=O)OCOc1c(-c2ccc(C(F)(F)F)cc2)c(C)nc2cc(OC)c(Cl)cc12.Cl [compound 27, 6-Chloro-7-methoxy-2-methyl-3-(4-(trifluoromethyl)phenyl)-4-(((2-(methylammonio)ethoxycarbonyl)oxy)methoxy)quinoline, chloride salt]

Molecule: CNCCCOC(=O)OCOc1c(-c2ccc(C(F)(F)F)cc2)c(C)nc2cc(OC)c(Cl)cc12.Cl [compound 28, 6-Chloro-7-methoxy-2-methyl-3-(4-(trifluoromethyl)phenyl)-4-(((3-(methylammonio)propyloxycarbonyl)oxy)methoxy)quinoline, chloride salt]
- parent compound released ([2]; in 5 h at pH 7.0): > 55%
- stability at low pH values ([2]; low pH values): stable
- Suppression [%] day 6 PI ± S.D. (P. berghei-GFP; 10 mg/kg PO once a day on days 3–5 PI, 0.5% aqueous HEC, mice): 82 ± 0.6%
- extension of life span of treated animals relative to untreated controls (P. berghei-GFP; 10 and 50 mg/kg PO days 3–5 PI): does not significantly extend

Molecule: CNCCCOC(=O)OCOc1c(-c2ccc(Oc3ccc(OC(F)(F)F)cc3)cc2F)c(C)nc2cc(OC)c(Cl)cc12.Cl [compound 30, 6-Chloro-7-methoxy-2-methyl-3-(2-fluoro-4-(4-(trifluoromethoxy)phenoxy)phenyl)-4-(((3-(methylammonio)propyloxycarbonyl)oxy)methoxy)quinoline, chloride salt]
- single oral dose producing cures (P. berghei-GFP; P. berghei-infected mice, single dose, no advanced formulation): 3 mg/kg
- average day of death (P. berghei-GFP; single dose 1 mg/kg PO, all 5 mice): > 13 days
- number of cures (P. berghei-GFP; single dose 3 mg/kg PO on day 3 PI, 3 mg/kg): 5 out of 5 and 5/5
- number of cures (P. berghei-GFP; single dose 10 mg/kg PO on day 3 PI, 10 mg/kg): 5 out of 5 and 5/5
- clearance ([1]; single oral administration, 0.5% aqueous HEC): low clearance

Molecule: formaldehyde [compound 14]
- EC50 (P. falciparum; release byproducts, devoid of antimalarial activity): > 4 µM
- W2 pEC50 [3]: inactive
- C2B pEC50 [4]: inactive
